# US20150105252A1, “SUBSTITUTED PYRAZOLES AS HERBICIDES” (E I DU PONT DE NEMOURS AND COMPANY, priority 2013, published 2015)
# Key:
# chickweed [1] = assay: Test D preemergence; type: in vivo, Stellaria media; details: for Plant response rating, Chickweed: Preemergence, scale 0 to 100
# Source text: (§1) Seeds of plant species selected from bluegrass (annual bluegrass, Poa annua), blackgrass (Alopecurus myosuroides), canarygrass (littleseed canarygrass, Phalaris minor), chickweed (common chickweed, Stellaria media), galium (catchweed bedstraw, Galium aparine), bromegrass, downy (downy bromegrass, Bromus tectorum), field poppy (Papaver rhoeas), field violet (Viola arvensis), foxtail, green (green foxtail, Setaria viridis), deadnettle (henbit deadnettle, Lamium amplexicaule), ryegrass, Italian (Italian ryegrass, Lolium multiflorum), kochia (Kochia scoparia), lambsquarters (Chenopodium album), oilseed rape (Brassica napus), pigweed (redroot pigweed, Amaranthus retroflexus), chamomile (scentless chamomile, Matricaria inodora), speedwell (bird's-eye speedwell, Veronica persica), barley, spring (spring barley, Hordeum vulgare), wheat, spring (spring wheat, Triticum aestivum), buckwheat, wild (wild buckwheat, Polygonum convolvulus), mustard, wild (wild mustard, Sinapis arvensis), oat, wild (wild oat, Avena fatua), radish, wild (wild radish, Raphanus raphanistrum), windgrass (Apera spica-venti), Russian thistle (Salsola kali), barley, winter (winter barley, Hordeum vulgare), and wheat, winter (winter wheat, Triticum aestivum) were planted into a silt loam soil and treated preemergence with test chemicals formulated in a non-phytotoxic solvent mixture which included a surfactant.
# (§2) At the same time, these species were planted in pots containing Redi-Earth® planting medium (Scotts Company, 14111 Scottslawn Road, Marysville, Ohio 43041) comprising spaghnum peat moss, vermiculite, wetting agent and starter nutrients and treated with postemergence applications of the test chemicals formulated in the same manner. Plants ranged in height from 2 to 18 cm (1- to 4-leaf stage). Treated plants and controls were maintained in a controlled growth environment for 14 to 21 days after which time all species were compared to controls and visually evaluated. Plant response ratings, summarized in Table D, are based on a scale of 0 to 100 where 0 is no effect and 100 is complete control. A dash (-) response means no test result.
# field violet = assay: Test D preemergence; type: in vivo, Viola arvensis; details: for Plant response rating, Field Violet: Preemergence, scale 0 to 100
# Source text: as §1, §2
# foxtail, green = assay: Test D preemergence; type: in vivo, Setaria viridis; details: for Plant response rating, Foxtail, Green: Preemergence, scale 0 to 100
# Source text: as §1, §2
# ryegrass, Italian = assay: Test D preemergence; type: in vivo, Lolium multiflorum; details: for Plant response rating, Ryegrass, Italian: Preemergence, scale 0 to 100
# Source text: as §1, §2
# kochia = assay: Test D preemergence; type: in vivo, Kochia scoparia; details: for Plant response rating, Kochia: Preemergence, scale 0 to 100
# Source text: as §1, §2
# pigweed = assay: Test D preemergence; type: in vivo, Amaranthus retroflexus; details: for Plant response rating, Pigweed: Preemergence, scale 0 to 100
# Source text: as §1, §2
# barley, spring = assay: Test D preemergence; type: in vivo, Hordeum vulgare; details: for Plant response rating, Barley, Spring: Preemergence, scale 0 to 100
# Source text: as §1, §2
# barley, winter = assay: Test D preemergence; type: in vivo, Hordeum vulgare; details: for Plant response rating, Barley, Winter: Preemergence, scale 0 to 100
# Source text: as §1, §2
# buckwheat, wild [2] = assay: Test D preemergence; type: in vivo, Polygonum convolvulus; details: for Plant response rating, Buckwheat, Wild: Preemergence, scale 0 to 100
# Source text: as §1, §2
# mustard, wild = assay: Test D preemergence; type: in vivo, Sinapis arvensis; details: for Plant response rating, Mustard, Wild: Preemergence, scale 0 to 100
# Source text: as §1, §2
# radish, wild = assay: Test D preemergence; type: in vivo, Raphanus raphanistrum; details: for Plant response rating, Radish, Wild: Preemergence, scale 0 to 100
# Source text: as §1, §2
# windgrass = assay: Test D preemergence; type: in vivo, Apera spica-venti; details: for Plant response rating, Windgrass: Preemergence, scale 0 to 100
# Source text: as §1, §2
# bluegrass = assay: Test D postemergence; type: in vivo, Poa annua; details: scale 0 to 100
# Source text: as §1, §2
# chickweed [3] = assay: Test D postemergence; type: in vivo, Stellaria media; details: scale 0 to 100
# Source text: as §1, §2
# field poppy = assay: Test D postemergence; type: in vivo, Papaver rhoeas; details: scale 0 to 100
# Source text: as §1, §2
# oilseed rape = assay: Test D postemergence; type: in vivo, Brassica napus; details: scale 0 to 100
# Source text: as §1, §2
# wheat, spring = assay: Test D postemergence; type: in vivo, Triticum aestivum; details: scale 0 to 100
# Source text: as §1, §2
# wheat, winter = assay: Test D postemergence; type: in vivo, Triticum aestivum; details: scale 0 to 100
# Source text: as §1, §2
# buckwheat, wild [4] = assay: Test D postemergence; type: in vivo, Polygonum convolvulus; details: scale 0 to 100
# Source text: as §1, §2
# [5] = 16 g ai/ha, taken as preemergence
compound,measurement,setting,value
Cc1cc(C(=O)NCC(F)(F)F)nn1Cc1ccnc(C(F)(F)F)c1 [Compound 74],"Plant response rating (scale 0 to 100), Chickweed",chickweed [1]; [5],20
same,"Plant response rating, Chickweed",chickweed [1]; 31 g ai/ha,70
same,"Plant response rating, Chickweed",chickweed [1]; 62 g ai/ha,100
same,"Plant response rating, Chickweed",chickweed [1]; 125 g ai/ha,100
same,"Plant response rating (scale 0 to 100), Field Violet",field violet; [5],25
same,"Plant response rating, Field Violet",field violet; 31 g ai/ha,60
same,"Plant response rating, Field Violet",field violet; 62 g ai/ha,60
same,"Plant response rating, Field Violet",field violet; 125 g ai/ha,95
same,"Plant response rating (scale 0 to 100), Foxtail, Green","foxtail, green; [5]",0
same,"Plant response rating, Foxtail, Green","foxtail, green; 31 g ai/ha",5
same,"Plant response rating, Foxtail, Green","foxtail, green; 62 g ai/ha",10
same,"Plant response rating, Foxtail, Green","foxtail, green; 125 g ai/ha",30
same,"Plant response rating (scale 0 to 100), Ryegrass, Italian","ryegrass, Italian; [5]",0
same,"Plant response rating, Ryegrass, Italian","ryegrass, Italian; 31 g ai/ha",0
same,"Plant response rating, Ryegrass, Italian","ryegrass, Italian; 62 g ai/ha",0
same,"Plant response rating, Ryegrass, Italian","ryegrass, Italian; 125 g ai/ha",0
same,"Plant response rating (scale 0 to 100), Kochia",kochia; [5],50
same,"Plant response rating, Kochia",kochia; 31 g ai/ha,85
same,"Plant response rating, Kochia",kochia; 62 g ai/ha,100
same,"Plant response rating, Kochia",kochia; 125 g ai/ha,100
same,"Plant response rating (scale 0 to 100), Pigweed",pigweed; [5],15
same,"Plant response rating, Pigweed",pigweed; 31 g ai/ha,30
same,"Plant response rating, Pigweed",pigweed; 62 g ai/ha,70
same,"Plant response rating, Pigweed",pigweed; 125 g ai/ha,100
same,"Plant response rating (scale 0 to 100), Barley, Spring","barley, spring; 16 g ai/ha, taken as preemergence, 0 = no effect, 100 = complete control",0
same,"Plant response rating, Barley, Spring","barley, spring; 31 g ai/ha",0
same,"Plant response rating, Barley, Spring","barley, spring; 62 g ai/ha",0
same,"Plant response rating, Barley, Spring","barley, spring; 125 g ai/ha",5
same,"Plant response rating (scale 0 to 100), Barley, Winter","barley, winter; [5]",0
same,"Plant response rating, Barley, Winter","barley, winter; 31 g ai/ha",0
same,"Plant response rating, Barley, Winter","barley, winter; 62 g ai/ha",0
same,"Plant response rating, Barley, Winter","barley, winter; 125 g ai/ha",0
same,"Plant response rating (scale 0 to 100), Buckwheat, Wild","buckwheat, wild [2]; [5]",25
same,"Plant response rating, Buckwheat, Wild","buckwheat, wild [2]; 31 g ai/ha",35
same,"Plant response rating, Buckwheat, Wild","buckwheat, wild [2]; 62 g ai/ha",45
same,"Plant response rating, Buckwheat, Wild","buckwheat, wild [2]; 125 g ai/ha",65
same,"Plant response rating (scale 0 to 100), Mustard, Wild","mustard, wild; [5]",15
same,"Plant response rating, Mustard, Wild","mustard, wild; 31 g ai/ha",25
same,"Plant response rating, Mustard, Wild","mustard, wild; 62 g ai/ha",25
same,"Plant response rating, Mustard, Wild","mustard, wild; 125 g ai/ha",80
same,"Plant response rating (scale 0 to 100), Radish, Wild","radish, wild; [5]",0
same,"Plant response rating, Radish, Wild","radish, wild; 31 g ai/ha",15
same,"Plant response rating, Radish, Wild","radish, wild; 62 g ai/ha",75
same,"Plant response rating, Radish, Wild","radish, wild; 125 g ai/ha",100
same,"Plant response rating (scale 0 to 100), Windgrass",windgrass; [5],0
same,"Plant response rating, Windgrass",windgrass; 31 g ai/ha,0
same,"Plant response rating, Windgrass",windgrass; 62 g ai/ha,25
same,"Plant response rating, Windgrass",windgrass; 125 g ai/ha,35
same,"Plant response rating, Bluegrass","bluegrass; Postemergence, 16 g ai/ha",5
same,Bluegrass plant response rating,"bluegrass; Postemergence, 31 g ai/ha",5
same,Bluegrass plant response rating,"bluegrass; Postemergence, 125 g ai/ha",5
same,Bluegrass plant response rating,"bluegrass; postemergence, 62 g ai/ha",5
same,"Plant response rating, Chickweed","chickweed [3]; Postemergence, 16 g ai/ha",15
same,Chickweed plant response rating,"chickweed [3]; Postemergence, 31 g ai/ha",35
same,Chickweed plant response rating,"chickweed [3]; Postemergence, 125 g ai/ha",65
same,Chickweed plant response rating,"chickweed [3]; postemergence, 62 g ai/ha",25
same,"Plant response rating, Field Poppy","field poppy; Postemergence, 16 g ai/ha",10
same,Field Poppy plant response rating,"field poppy; Postemergence, 31 g ai/ha",75
same,Field Poppy plant response rating,"field poppy; Postemergence, 125 g ai/ha",20
same,Field Poppy plant response rating,"field poppy; postemergence, 62 g ai/ha",30
same,"Plant response rating, Oilseed Rape","oilseed rape; Postemergence, 16 g ai/ha",15
same,Oilseed Rape plant response rating,"oilseed rape; Postemergence, 31 g ai/ha",20
same,Oilseed Rape plant response rating,"oilseed rape; Postemergence, 125 g ai/ha",35
same,Oilseed Rape plant response rating,"oilseed rape; postemergence, 62 g ai/ha",25
same,"Plant response rating, Wheat, Spring","wheat, spring; Postemergence, 16 g ai/ha",0
same,"Wheat, Spring plant response rating","wheat, spring; Postemergence, 31 g ai/ha",0
same,"Wheat, Spring plant response rating","wheat, spring; Postemergence, 125 g ai/ha",5
same,"Wheat, Spring plant response rating","wheat, spring; postemergence, 62 g ai/ha",0
same,"Plant response rating, Wheat, Winter","wheat, winter; Postemergence, 16 g ai/ha",0
same,"Wheat, Winter plant response rating","wheat, winter; Postemergence, 31 g ai/ha",0
same,"Wheat, Winter plant response rating","wheat, winter; Postemergence, 125 g ai/ha",0
same,"Wheat, Winter plant response rating","wheat, winter; postemergence, 62 g ai/ha",0
same,"Plant response rating, Buckwheat, Wild","buckwheat, wild [4]; Postemergence, 16 g ai/ha",60
same,"Buckwheat, Wild plant response rating","buckwheat, wild [4]; Postemergence, 31 g ai/ha",60
same,"Buckwheat, Wild plant response rating","buckwheat, wild [4]; Postemergence, 125 g ai/ha",65
same,"Buckwheat, Wild plant response rating","buckwheat, wild [4]; postemergence, 62 g ai/ha",45
